Reference: the supplement of paper PMC13380429

What was measured:
Details in all cases: 72 h
Calu-3 [1] = assay: cell viability relative to DMSO; higher = less toxic
Caco-2 [2] = assay: as above
U2OS [3] = assay: as above
Vero E6 [4] = assay: as above
HepG2 [5] = assay: as above
Caco-2 [6] = assay: relative viability EC50 (midpoint between 100% and the lowest measured viability); higher = less toxic
U2OS [7] = assay: as above
Vero E6 [8] = assay: as above
HepG2 [9] = assay: as above
Calu-3 [10] = assay: drug sensitivity score (DSS) for viability; higher = more toxic; extreme values may be limits of the assay
Caco-2 [11] = assay: as above
U2OS [12] = assay: as above
Vero E6 [13] = assay: as above
HepG2 [14] = assay: as above
Calu-3 [15] = assay: relative viability EC50 (midpoint between 100% and the lowest measured viability); higher = less toxic

| SMILES | cell viability (Calu-3 [1]; 1 nM) [%] | cell viability (Calu-3 [1]; 10 nM) [%] | cell viability (Calu-3 [1]; 100 nM) [%] | cell viability (Calu-3 [1]; 1000 nM) [%] | cell viability (Calu-3 [1]; 10000 nM) [%] | cell viability (Caco-2 [2]; 1 nM) [%] | cell viability (Caco-2 [2]; 10 nM) [%] | cell viability (Caco-2 [2]; 100 nM) [%] | cell viability (Caco-2 [2]; 1000 nM) [%] | cell viability (Caco-2 [2]; 10000 nM) [%] | cell viability (U2OS [3]; 1 nM) [%] | cell viability (U2OS [3]; 10 nM) [%] | cell viability (U2OS [3]; 100 nM) [%] | cell viability (U2OS [3]; 1000 nM) [%] | cell viability (U2OS [3]; 10000 nM) [%] | cell viability (Vero E6 [4]; 1 nM) [%] | cell viability (Vero E6 [4]; 10 nM) [%] | cell viability (Vero E6 [4]; 100 nM) [%] | cell viability (Vero E6 [4]; 1000 nM) [%] | cell viability (Vero E6 [4]; 10000 nM) [%] | cell viability (HepG2 [5]; 1 nM) [%] | cell viability (HepG2 [5]; 10 nM) [%] | cell viability (HepG2 [5]; 100 nM) [%] | cell viability (HepG2 [5]; 1000 nM) [%] | cell viability (HepG2 [5]; 10000 nM) [%] | relative viability EC50 (Caco-2 [6]) [µM] | relative viability EC50 (U2OS [7]) [µM] | relative viability EC50 (Vero E6 [8]) [µM] | relative viability EC50 (HepG2 [9]) [µM] | drug sensitivity score (Calu-3 [10]) | drug sensitivity score (Caco-2 [11]) | drug sensitivity score (U2OS [12]) | drug sensitivity score (Vero E6 [13]) | drug sensitivity score (HepG2 [14]) | relative viability EC50 (Calu-3 [15]) [µM] |
| --- | --- | --- | --- | --- | --- | --- | --- | --- | --- | --- | --- | --- | --- | --- | --- | --- | --- | --- | --- | --- | --- | --- | --- | --- | --- | --- | --- | --- | --- | --- | --- | --- | --- | --- | --- |
| COc1ccc(CC2NCCc3c2[nH]c2ccc(C)cc32)c(Cl)c1OC (centres undefined) | 101 | 95.9 | 92.9 | 102 | 66.8 | 94.8 | 98.2 | 105 | 102 | 87.9 | 95.4 | 101 | 98.3 | 101 | 94 | 99 | 93.2 | 101 | 89.1 | 76.5 | 103 | 90.2 | 108 | 104 | 91.7 | > 10 | > 10 | > 10 | > 10 | 1.3 | 0 | 0 | 2.1 | 0 | – |
| O=C(O)COc1cccc(CN(Cc2ccc(-n3cccn3)cc2)S(=O)(=O)c2cccnc2)c1 [taprenepag] | 109 | 95.6 | 94.5 | 92.9 | 91.7 | 104 | 102 | 99.2 | 109 | 93.9 | – | – | – | – | – | 105 | 97.2 | 97.5 | 102 | 104 | 92.5 | 104 | 93.8 | 104 | 96.4 | > 10 | – | > 10 | > 10 | 0 | 0 | – | 0 | 0 | > 10 |
| CN1c2ccccc2C(NCCCCCCC(=O)O)c2ccc(Cl)cc2S1(=O)=O (centres undefined) [tianeptine] | 100 | 103 | 92.4 | 102 | 102 | 103 | 92.7 | 107 | 94.8 | 92.8 | – | – | – | – | – | 104 | 102 | 101 | 94.1 | 88.1 | 100 | 108 | 96.2 | 108 | 98.6 | > 10 | – | > 10 | > 10 | 0 | 0 | – | 0.3 | 0 | > 10 |
| CN(C)C(=N)NC(=N)N [metformin] | 103 | 103 | 85.6 | 101 | 89.1 | 106 | 95.7 | 90.2 | 104 | 109 | – | – | – | – | – | 93.6 | 102 | 103 | 103 | 102 | 93.4 | 96.7 | 97.2 | 94.3 | 93 | > 10 | – | > 10 | > 10 | 0 | 0 | – | 0 | 0 | > 10 |
| O=C(Nc1ccc(CN2CCOCC2)cc1)c1ccc(-c2cccc(Cl)c2)o1 | 98.3 | 95.4 | 97.3 | 97.8 | 91 | 110 | 102 | 99.9 | 104 | 95.7 | – | – | – | – | – | 100 | 100 | 102 | 99.4 | 102 | 107 | 104 | 97.8 | 93.7 | 99.5 | > 10 | – | > 10 | > 10 | 0 | 0 | – | 0 | 0 | > 10 |
| CCCC(C)NC(=O)c1ccc(Cl)c(Cl)c1 (centres undefined) | 103 | 77.1 | 99 | 77.4 | 104 | 120 | 98 | 104 | 117 | 94.5 | – | – | – | – | – | 104 | 101 | 99.3 | 103 | 99.8 | 97.1 | 104 | 92.8 | 98 | 98.6 | > 10 | – | > 10 | > 10 | 0 | 0 | – | 0 | 0 | > 10 |
| O=C1CN(/N=C/c2ccc(-c3ccc([N+](=O)[O-])cc3)o2)C(=O)N1 [dantrolene] | 102 | 95 | 106 | 102 | 112 | 110 | 97.1 | 91.7 | 97.8 | 89.7 | 96.8 | 101 | 96.1 | 103 | 95.6 | – | – | – | – | – | 102 | 101 | 95.6 | 101 | 107 | > 10 | > 10 | – | > 10 | 0 | 0 | 0 | – | 0 | > 10 |
| CC1(C)CN(C(=O)c2ccc(-c3cccc4nc(NC(=O)C5CC5)nn34)cc2)C1 [solcitinib] | 106 | 94.5 | 102 | 101 | 92.2 | 99.1 | 99.8 | 92.9 | 87.3 | 81.7 | 101 | 97.3 | 101 | 97.2 | 96.8 | – | – | – | – | – | 105 | 112 | 99.6 | 98.4 | 96.6 | > 10 | > 10 | – | > 10 | 0 | 1.5 | 0 | – | 0 | > 10 |
| Cc1noc(C)c1-c1ccc(-c2cc(C(N)=O)c(NC(N)=O)s2)c(O[C@H]2CCNC2)c1 [AZD3264] | 97.4 | 95.7 | 103 | 101 | 105 | 95.7 | 100 | 100 | 103 | 106 | – | – | – | – | – | 102 | 104 | 105 | 97.4 | 103 | 114 | 97.6 | 99.8 | 101 | 99.4 | > 10 | – | > 10 | > 10 | 0 | 0 | – | 0 | 0 | > 10 |
| CCOc1c(N2CCOCC2)cnn(C)c1=O [emorfazone] | – | – | – | – | – | 99.1 | 119 | 112 | 127 | 108 | 96.4 | 93.1 | 93.8 | 96.1 | 104 | 95.3 | 93.6 | 98.3 | 96.2 | 99.4 | 106 | 109 | 97.2 | 118 | 108 | > 10 | > 10 | > 10 | > 10 | – | 0 | 0 | 0 | 0 | – |
| Cc1ccc(NC(=O)c2ccc(CN3CC[C@H](N(C)C)C3)c(C(F)(F)F)c2)cc1Nc1nccc(-c2cncnc2)n1 [bafetinib] | 98.7 | 107 | 98.8 | 99.9 | 74.8 | 97.1 | 108 | 92.9 | 104 | 79 | 99.9 | 101 | 103 | 99.4 | 79 | 96.7 | 98.1 | 96.5 | 99.7 | 76.1 | 98.4 | 89.2 | 91 | 85.1 | 19.5 | > 10 | > 10 | > 10 | 1.8 | 1 | 0.5 | 0.7 | 0.9 | 6.9 | – |
| Nc1nc2ccc(OC(F)(F)F)cc2s1 [riluzole] | 96 | 100 | 109 | 97.5 | 103 | 97.4 | 90.4 | 91.7 | 103 | 96.9 | – | – | – | – | – | 93.4 | 98.1 | 98.7 | 99.5 | 104 | 97.9 | 106 | 96.6 | 94.7 | 105 | > 10 | – | > 10 | > 10 | 0 | 0 | – | 0 | 0 | > 10 |
| O=S(=O)(O)c1cc(I)c(O)c2ncccc12 [chiniofon] | 98.2 | 102 | 94.6 | 95.9 | 93.6 | 107 | 101 | 95.4 | 104 | 94.8 | – | – | – | – | – | – | – | – | – | – | 111 | 102 | 104 | 102 | 99 | > 10 | – | – | > 10 | 0 | 0 | – | – | 0 | > 10 |
